{"source": "patent US9586951B2", "about": "(FUJIFILM Corporation, priority 2013, dated 2017)", "target": "T1, ATM (Homo sapiens, UniProt Q13315)", "T1 construct": "detecting phosphorylation of Chk2 in a human non-small cell lung cancer cell line NCI-H460 (ATCC company); host or cells: NCI-H460 human non-small cell lung cancer cells", "T1 sequence (Q13315 whole entry)": "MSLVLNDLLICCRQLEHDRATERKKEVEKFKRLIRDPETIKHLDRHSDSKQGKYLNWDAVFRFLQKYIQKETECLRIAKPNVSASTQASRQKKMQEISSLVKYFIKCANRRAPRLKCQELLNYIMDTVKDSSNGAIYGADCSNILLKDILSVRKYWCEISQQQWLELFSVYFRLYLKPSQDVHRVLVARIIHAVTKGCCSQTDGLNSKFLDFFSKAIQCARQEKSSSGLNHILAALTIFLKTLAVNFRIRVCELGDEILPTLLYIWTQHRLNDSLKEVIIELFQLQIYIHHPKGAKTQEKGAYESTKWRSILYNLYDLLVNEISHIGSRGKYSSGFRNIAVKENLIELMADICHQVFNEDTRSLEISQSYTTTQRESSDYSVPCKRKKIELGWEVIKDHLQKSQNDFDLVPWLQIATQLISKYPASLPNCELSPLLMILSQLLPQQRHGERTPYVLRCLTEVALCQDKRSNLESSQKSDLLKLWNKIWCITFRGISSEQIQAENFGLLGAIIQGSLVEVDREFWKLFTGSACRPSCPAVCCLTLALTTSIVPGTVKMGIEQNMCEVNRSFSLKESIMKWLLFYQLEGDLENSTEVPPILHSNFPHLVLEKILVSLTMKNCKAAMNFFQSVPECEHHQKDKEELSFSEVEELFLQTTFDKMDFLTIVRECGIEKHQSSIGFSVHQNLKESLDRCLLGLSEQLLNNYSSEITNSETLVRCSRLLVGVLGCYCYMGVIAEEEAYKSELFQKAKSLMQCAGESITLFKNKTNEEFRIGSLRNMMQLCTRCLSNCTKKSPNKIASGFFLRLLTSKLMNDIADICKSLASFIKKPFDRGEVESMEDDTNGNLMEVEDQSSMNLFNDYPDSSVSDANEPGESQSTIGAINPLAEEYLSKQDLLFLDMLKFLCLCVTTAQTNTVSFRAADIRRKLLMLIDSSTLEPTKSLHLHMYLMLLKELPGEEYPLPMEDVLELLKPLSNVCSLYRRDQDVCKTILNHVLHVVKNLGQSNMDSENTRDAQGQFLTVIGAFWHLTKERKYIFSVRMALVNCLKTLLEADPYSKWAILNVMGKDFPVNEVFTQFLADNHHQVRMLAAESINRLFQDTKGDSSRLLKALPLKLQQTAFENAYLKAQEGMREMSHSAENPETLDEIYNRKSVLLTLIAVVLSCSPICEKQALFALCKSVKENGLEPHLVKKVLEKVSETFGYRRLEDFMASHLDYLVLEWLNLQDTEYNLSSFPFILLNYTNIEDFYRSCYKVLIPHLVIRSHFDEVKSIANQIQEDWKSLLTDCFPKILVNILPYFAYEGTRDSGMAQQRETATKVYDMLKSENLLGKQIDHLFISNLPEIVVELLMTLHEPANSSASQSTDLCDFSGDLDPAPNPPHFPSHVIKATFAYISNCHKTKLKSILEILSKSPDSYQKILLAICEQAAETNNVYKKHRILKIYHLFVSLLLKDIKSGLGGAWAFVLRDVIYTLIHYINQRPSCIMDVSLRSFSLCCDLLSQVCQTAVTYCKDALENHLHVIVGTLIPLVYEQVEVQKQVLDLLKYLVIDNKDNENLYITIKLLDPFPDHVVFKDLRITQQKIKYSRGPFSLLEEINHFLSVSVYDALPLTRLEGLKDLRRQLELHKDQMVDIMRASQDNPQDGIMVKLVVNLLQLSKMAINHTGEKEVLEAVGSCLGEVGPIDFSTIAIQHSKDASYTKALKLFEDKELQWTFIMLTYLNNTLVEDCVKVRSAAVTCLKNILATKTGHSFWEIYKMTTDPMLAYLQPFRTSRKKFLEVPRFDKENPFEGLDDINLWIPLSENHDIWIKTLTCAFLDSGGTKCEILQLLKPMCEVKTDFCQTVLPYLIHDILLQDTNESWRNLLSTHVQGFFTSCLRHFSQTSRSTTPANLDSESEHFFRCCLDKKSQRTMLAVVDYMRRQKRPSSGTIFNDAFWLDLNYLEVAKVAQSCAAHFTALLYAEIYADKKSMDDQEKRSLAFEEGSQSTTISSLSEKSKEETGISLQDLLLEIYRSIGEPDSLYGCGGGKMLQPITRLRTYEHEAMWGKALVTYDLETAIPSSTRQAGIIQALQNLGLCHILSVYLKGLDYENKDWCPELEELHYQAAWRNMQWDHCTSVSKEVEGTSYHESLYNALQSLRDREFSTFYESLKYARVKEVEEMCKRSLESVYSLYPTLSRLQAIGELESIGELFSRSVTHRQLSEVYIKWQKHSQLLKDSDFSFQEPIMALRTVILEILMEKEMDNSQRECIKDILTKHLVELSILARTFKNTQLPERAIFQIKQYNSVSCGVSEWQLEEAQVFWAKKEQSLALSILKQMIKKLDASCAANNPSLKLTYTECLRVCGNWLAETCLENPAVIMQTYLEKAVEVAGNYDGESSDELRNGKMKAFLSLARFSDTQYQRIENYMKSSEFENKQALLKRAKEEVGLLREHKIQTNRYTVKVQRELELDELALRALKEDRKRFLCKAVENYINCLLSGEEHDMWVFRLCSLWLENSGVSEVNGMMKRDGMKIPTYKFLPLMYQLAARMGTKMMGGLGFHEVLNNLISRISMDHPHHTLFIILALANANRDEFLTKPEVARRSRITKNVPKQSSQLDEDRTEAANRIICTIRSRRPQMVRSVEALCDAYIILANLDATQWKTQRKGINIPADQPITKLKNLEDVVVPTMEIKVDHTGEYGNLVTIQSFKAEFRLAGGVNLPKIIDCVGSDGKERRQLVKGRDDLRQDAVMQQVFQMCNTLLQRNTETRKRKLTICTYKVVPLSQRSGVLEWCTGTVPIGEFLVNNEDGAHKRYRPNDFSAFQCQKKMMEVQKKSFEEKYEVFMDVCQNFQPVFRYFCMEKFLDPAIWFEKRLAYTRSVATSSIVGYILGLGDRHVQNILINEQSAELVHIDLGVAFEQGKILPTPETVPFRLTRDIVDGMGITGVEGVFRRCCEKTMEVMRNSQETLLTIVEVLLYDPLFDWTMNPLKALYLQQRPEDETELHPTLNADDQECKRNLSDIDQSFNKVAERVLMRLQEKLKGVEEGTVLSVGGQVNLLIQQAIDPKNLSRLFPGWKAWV", "test": "ATM inhibition test (phosphorylation of Chk2 generated by ionizing radiation, AlphaScreen SureFire)", "assay_type": "cell-based", "conditions": "phosphorylated Chk2 in NCI-H460 cells, ionizing radiation 8Gy, 1 hour after test compound treatment; read-out: ATM inhibitory activity", "experimental": "ATM inhibitory effects of a test compound were measured by detecting phosphorylation of Chk2 in a human non-small cell lung cancer cell line NCI-H460 (ATCC company). The level of phosphorylated Chk2 generated by an ionizing radiation was measured using AlphaScreen SureFire (TGR Biosciences).\nThe cells were seeded by 40000 cells per well in 96-well CellBIND® plates (Corning International Inc.), and incubated at 37° C. overnight in 5% CO2. […] 1 hour after a test compound treatment, half of the plates were irradiated with ionizing radiation 8Gy (Faxitron Bioptics, LLC, RX-650 type). The plates irradiated with ionizing radiation and the plates not being irradiated with ionizing radiation were incubated at 37° C. for 1 hour in 5% CO2. […] Subsequent operations were performed according to the instruction book of AlphaScreen SureFire. […] The inhibition ratio was calculated by the following equation. Inhibition ratio (%)=((signal of drug untreated wells in the plates irradiated with ionizing radiation−signal of drug treated wells in the plates irradiated with ionizing radiation)/(signal of drug untreated wells in the plates irradiated with ionizing radiation−signal of drug untreated wells in the plates not being irradiated with ionizing radiation))×100"}
{"molecule": "O=c1cc(N2CCOCC2)cc(-c2cccc3c2Sc2ccc(NCCN4CCS(=O)(=O)CC4)cc2S3)[nH]1", "note": "[Example 1-16-8, 6-(7-((2-(1,1-Dioxidethiomorpholino)ethyl)amino)thianthren-1-yl)-4-morpholinopyridin-2(1H)-one]", "values": [{"measurement": "IC50", "value": "100 to 500", "unit": "nM"}]}
{"molecule": "CCC(C(=O)Nc1ccc2c(c1)Sc1cccc(-c3cc(N4CCOCC4)cc(=O)[nH]3)c1S2)N1CCOCC1", "note": "(stereo not drawn) [Example 1-6-2, 2-Morpholino-N-(6-(4-morpholino-6-oxo-1,6-dihydropyridin-2-yl)thianthren-2-yl)butanamide]", "values": [{"measurement": "IC50", "value": "100 to 500", "unit": "nM"}]}
{"molecule": "COc1cncc(C(C)Nc2ccc3c(c2)Cc2cccc(-c4cc(N5CCOCC5)cc(=O)[nH]4)c2O3)c1", "note": "(racemic) [Example 2-11-2, 6-(7-((1-(5-Methoxypyridin-3-yl)ethyl)amino)-9H-xanthen-4-yl)-4-morpholinopyridin-2(1H)-one]", "values": [{"measurement": "IC50", "value": "100 to 500", "unit": "nM"}]}
{"molecule": "COc1ccncc1CNc1ccc2c(c1)Sc1cccc(-c3cc(N4CCOCC4)cc(=O)[nH]3)c1O2", "note": "[Example 4-8-10, 6-(8-(((4-Methoxypyridin-3-yl)methyl)amino)phenoxathiin-4-yl)-4-morpholino pyridin-2(1H)-one]", "values": [{"measurement": "IC50", "value": "100 to 500", "unit": "nM"}]}
{"molecule": "Cc1ccc(C(CC2CC2)Nc2ccc3c(c2)Sc2cccc(-c4cc(N5CCOCC5)cc(=O)[nH]4)c2S3)nc1", "note": "(stereo not drawn) [Example 1-12-128, 6-(7-((2-Cyclopropyl-1-(5-methylpyridin-2-yl)ethyl)amino)thianthren-1-yl)-4-morpholino pyridin-2(1H)-one]", "values": [{"measurement": "IC50", "value": "100 to 500", "unit": "nM"}]}
{"molecule": "COCC(CN1CCOCC1)Nc1ccc2c(c1)Sc1cccc(-c3cc(N4CCOCC4)cc(=O)[nH]3)c1S2", "note": "(single isomer, unassigned) [Example 1-17-1-3, 6-(7-((1-methoxy-3-morpholinopropan-2-yl)amino)thianthren-1-yl)-4-morpholinopyridin-2(1H)-one]", "values": [{"measurement": "IC50", "value": "100 to 500", "unit": "nM"}]}
{"molecule": "Cc1cnc(C(C)Nc2ccc3c(c2)Cc2cccc(-c4cc(N5CCOCC5)cc(=O)[nH]4)c2O3)cn1", "note": "(single isomer, unassigned) [Example 2-14-90-1, 6-(7-((1-(5-methylpyrazin-2-yl)ethyl)amino)-9H-xanthen-4-yl)-4-morpholinopyridin-2(1H)-one]", "values": [{"measurement": "IC50", "value": "500 to 2000", "unit": "nM"}]}
{"molecule": "N#Cc1cccc(CNc2ccc3c(c2)Cc2cccc(-c4cc(N5CCOCC5)cc(=O)[nH]4)c2O3)c1", "note": "[Example 2-3-15, 3-(((5-(4-Morpholino-6-oxo-1,6-dihydropyridin-2-yl)-9H-xanthen-2-yl)amino)methyl) benzonitrile]", "values": [{"measurement": "IC50", "value": "100 to 500", "unit": "nM"}]}
{"molecule": "CCCCN1CCC(Nc2ccc3c(c2)Cc2cccc(-c4cc(N5CCOCC5)cc(=O)[nH]4)c2O3)C1", "note": "(stereo not drawn) [Example 2-19-8, 6-(7-((1-Butylpyrrolidin-3-yl)amino)-9H-xanthen-4-yl)-4-morpholinopyridin-2(1H)-one]", "values": [{"measurement": "IC50", "value": "100 to 500", "unit": "nM"}]}
{"molecule": "CC(CN1CCCC(O)C1)Nc1ccc2c(c1)Sc1cccc(-c3cc(N4CCOCC4)cc(=O)[nH]3)c1S2", "note": "(stereo not drawn) [Example 1-13-6, 6-(7-((1-(3-Hydroxypiperidin-1-yl)propan-2-yl)amino)thianthren-1-yl)-4-morpholino pyridin-2(1H)-one]", "values": [{"measurement": "IC50", "value": "100 to 500", "unit": "nM"}]}
{"molecule": "COCc1ccc(CCN2CCC(Nc3ccc4c(c3)Cc3cccc(-c5cc(N6CCOCC6)cc(=O)[nH]5)c3O4)CC2)cc1", "note": "[Example 2-30-20, 6-(7-((1-(4-(Methoxymethyl)phenethyl)piperidin-4-yl)amino)-9H-xanthen-4-yl)-4-morpholino pyridin-2(1H)-one]", "values": [{"measurement": "IC50", "value": "500 to 2000", "unit": "nM"}]}
{"molecule": "Cn1cc(-c2cncc(CNc3ccc4c(c3)Cc3cccc(-c5cc(N6CCOCC6)cc(=O)[nH]5)c3O4)c2)cn1", "note": "[Example 2-2-49, 6-(7-(((5-(1-Methyl-1H-pyrazol-4-yl)pyridin-3-yl)methyl)amino)-9H-xanthen-4-yl)-4-morpholino pyridin-2(1H)-one]", "values": [{"measurement": "IC50", "value": "100 to 500", "unit": "nM"}]}
{"molecule": "Nc1ccc2c(c1)Sc1cccc(-c3cc(N4CCOCC4)cc(=O)[nH]3)c1O2", "note": "[Example 4-2, 6-(8-Aminophenoxathiin-4-yl)-4-morpholinopyridin-2(1H)-one]", "values": [{"measurement": "IC50", "value": "100 to 500", "unit": "nM"}]}
{"molecule": "CCCC(Nc1ccc2c(c1)Sc1cccc(-c3cc(N4CCOCC4)cc(=O)[nH]3)c1S2)[C@H](C)N", "note": "(stereo partly drawn) [Example 1-20-2, 6-(7-(((2S)-2-Aminohexan-3-yl)amino)thianthren-1-yl)-4-morpholino pyridin-2(1H)-one]", "values": [{"measurement": "IC50", "value": "100 to 500", "unit": "nM"}]}
{"molecule": "O=c1cc(N2CCOCC2)cc(-c2cccc3c2Oc2ccc(NCc4cncc(F)c4)cc2C3)[nH]1", "note": "[Example 2-2-10, 6-(7-(((5-Fluoropyridin-3-yl)methyl)amino)-9H-xanthen-4-yl)-4-morpholino pyridin-2 (1H)-one]", "values": [{"measurement": "IC50", "value": "100 to 500", "unit": "nM"}]}
{"molecule": "CC(CN1CCN(C)CC1)Nc1ccc2c(c1)Sc1cccc(-c3cc(N4CCOCC4)cc(=O)[nH]3)c1S2", "note": "(single isomer, unassigned) [Example 1-13-3-3, 6-(7-((1-(4-methylpiperazin-1-yl)propan-2-yl)amino)thianthren-1-yl)-4-morpholinopyridin-2(1H)-one]", "values": [{"measurement": "IC50", "value": "100 to 500", "unit": "nM"}]}
{"molecule": "Cc1nccnc1CNc1ccc2c(c1)Cc1cccc(-c3cc(N4CCOCC4)cc(=O)[nH]3)c1O2", "note": "[Example 2-14-75, 6-(7-(((3-Methylpyrazin-2-yl)methyl)amino)-9H-xanthen-4-yl)-4-morpholino pyridin-2(1H)-one]", "values": [{"measurement": "IC50", "value": "100 to 500", "unit": "nM"}]}
{"molecule": "Cc1ccnc(C(C)Nc2ccc3c(c2)Cc2cccc(-c4cc(N5CCOCC5)cc(=O)[nH]4)c2O3)c1", "note": "(single isomer, unassigned) [Example 2-14-93-2, 6-(7-((1-(4-methylpyridin-2-yl)ethyl)amino)-9H-xanthen-4-yl)-4-morpholinopyridin-2(1H)-one]", "values": [{"measurement": "IC50", "value": "< 100", "unit": "nM"}]}
{"molecule": "CC(Nc1ccc2c(c1)Cc1cccc(-c3cc(N4CCOCC4)cc(=O)[nH]3)c1O2)c1nccs1", "note": "(stereo not drawn) [Example 2-14-43, 4-Morpholino-6-(7-((1-(thiazol-2-yl)ethyl)amino)-9H-xanthen-4-yl)pyridin-2 (1H)-one]", "values": [{"measurement": "IC50", "value": "100 to 500", "unit": "nM"}]}
{"molecule": "COc1cc(CNc2ccc3c(c2)Sc2cccc(-c4cc(N5CCOCC5)cc(=O)[nH]4)c2O3)ccn1", "note": "[Example 4-8-4, 6-(8-(((2-Methoxypyridin-4-yl)methyl)amino)phenoxathiin-4-yl)-4-morpholino pyridin-2(1H)-one]", "values": [{"measurement": "IC50", "value": "100 to 500", "unit": "nM"}]}
{"molecule": "O=c1cc(N2CCOCC2)cc(-c2cccc3c2Sc2ccc(NC4CCCN(C5CCCCC5)C4)cc2S3)[nH]1", "note": "(stereo not drawn) [Example 1-24-1, 6-(7-((1-Cyclohexylpiperidin-3-yl)amino)thianthren-1-yl)-4-morpholinopyridin-2(1H)-one]", "values": [{"measurement": "IC50", "value": "100 to 500", "unit": "nM"}]}
{"molecule": "Cc1cncc(C(C)Nc2ccc3c(c2)Cc2cccc(-c4cc(N5CCOCC5)cc(=O)[nH]4)c2O3)c1", "note": "(single isomer, unassigned) [Example 2-14-88-1, 6-(7-((1-(5-methylpyridin-3-yl)ethyl)amino)-9H-xanthen-4-yl)-4-morpholinopyridin-2(1H)-one]", "values": [{"measurement": "IC50", "value": "100 to 500", "unit": "nM"}]}
{"molecule": "CC(Nc1ccc2c(c1)Sc1cccc(-c3cc(N4CCOCC4)cc(=O)[nH]3)c1S2)c1ncc(CO)cn1", "note": "(stereo not drawn) [Example 1-12-92, 6-(7-((1-(5-(Hydroxymethyl)pyrimidin-2-yl)ethyl)amino)thianthren-1-yl)-4-morpholino pyridin-2(1H)-one]", "values": [{"measurement": "IC50", "value": "100 to 500", "unit": "nM"}]}
{"molecule": "O=c1cc(N2CCOCC2)cc(-c2cccc3c2Sc2ccc(N[C@H](COCc4ccccc4)CN4CCOCC4)cc2S3)[nH]1", "note": "[Example 1-59-2, (S)-6-(7-((1-(benzyloxy)-3-morpholinopropan-2-yl)amino)thianthren-1-yl)-4-morpholinopyridin-2(1H)-one]", "values": [{"measurement": "IC50", "value": "100 to 500", "unit": "nM"}]}
